Read-outs that look alike come from different tables or passages of the source. Marks after values point to notes of the source that are not given here.
Legend:
[1] = Distribution by internal organs after oral administration (GLC); assay type: in vivo; details: rats, 100 mg/kg orally; for concentration at 0.25 h / concentration at 0.5 h / concentration at 1 h / concentration at 1.5 h / concentration at 2 h / concentration at 4 h / concentration at 6 h / concentration at 8 h: both sexes, outbred white, rat, po; for concentration at 0.5 h: 0.50 h; for concentration at 1.5 h: 1.50 h
Method: The degree of tropism of the compound in various organs by quantitative content varies and is arranged in descending order as follows: liver, kidneys, heart, and brain. Rapid penetration into the brain confirms the good kinetic ability to penetrate through the blood-brain barrier. In 15 minutes, its presence is detected in the brain, heart, liver and kidneys. In the brain, liver and kidneys, the maximum concentration is achieved in an hour, and 6 hours after oral administration the compound is not detectable any more. […] The maximum concentration of Phenotropil in the myocardium is detected later than in the brain, but it is eliminated from the myocardium also two hours later. In the liver, the maximum concentration is found after an hour and then the concentration is gradually decreasing. One hour after administration, the concentration in the kidneys reaches the maximum, with a gradual decrease further on.

[2] = test system: MDA; assay: MDA (lipid peroxidation) in saliva after topical course; assay type: in vivo; details: human saliva after topical course treatment, 100 mg per 100 ml water
Source text: Studies of the effects of Phenotropil on condition of paradontium, enamel and dentin with topic application involved men and women (45-54 years) diagnosed with periodontitis, parodontosis and caries. Enrollment of groups by separate indicators in this age failed. In the vast majority of subjects, the diseases were combined. The gender ratio in groups was: 30.0% men and 70.0% women, the ratio of smokers to non-smokers 60:40, the number of female smokers was higher than male smokers by 35.0%. All patients received every three days the required amount of 0.1%, 0.2% or 0.3% solution of Phenotropil or placebo. The solutions were applied daily as dental trays (for 30 sec.) in the morning and evening at 30 ml per application for 30 days. Food and drinks intake, including water, were not recommended for 2 hours after the procedure. All patients underwent a dental check-up and standard hygienic treatment with removing plaque and dental scale and lavaging the gingival pockets with 1% Phenotropil solution. For each subject, the studied parameters were recorded; the aggregate integral indicator of the general periodontal condition of enamel and dentin was calculated, in the negative scores. The examinations were conducted once a week throughout the period of monotherapy. […]

[3] = test system: women; assay: Skin aging, vessels and joints, topical solution and creams; assay type: in vivo, human; details: for Efficacy in % relative to baseline control (skin aging) / Efficacy in % (skin aging) / Efficacy expressed in % (age-related changes of blood vessels and joints) / Efficacy expressed in % (skin aging): humans, topical course; for Efficacy in % (skin aging): baseline control = 100.0; for Efficacy expressed in % (age-related changes of blood vessels and joints) / Efficacy expressed in % (skin aging): baseline control = 100
Method: Example 24 presents the results of research of Phenotropil as parapharmaceutic—cosmeceutical agents in women (age 53-60 years) and as a standard solution. The 0.1% water solution (distilled water) of Phenotropil and placebo was prepared; for convenience of preparing therapeutic cream formulation, the standard composition of cream base was used, or actual creams “Vecher”, “Lux” and “Gerantol” manufactured by “Svoboda” (Russia) were used as the base, with 100, 200, 300 mg of Phenotropil per 100 g of finished compositions to prepare a cosmeceutical agent. The cosmeceutical formulations were prepared with the powder of Compound 1 sifted and well ground in a mortar.
At baseline examination, main indicators of the skin condition of the hands and face in the groups were recorded, integral index for aggregate characteristics was calculated (dryness, wrinkling, superficial vascular fascicles, the intensity of subcutaneous vascular pattern, pigmentation—the intensity of color, the number of pigment spots and their total area). Preliminarily, each subject was tested for allergic skin reaction with the most concentrated formulation. No allergic reactions have been identified. In one group, only solution of Phenotropil was used in the morning and evening, applying a small amount (like a regular lotion) of the solution on cosmetic cotton pads and wiping the face and hands. In the other groups, this procedure was carried out before applying the Phenotropil-containing cream. The results of the baseline evaluation in each group were taken for 100.0%.

[4] = test system: patients; assay: Seborrhea of scalp and face skin, topical solution; assay type: in vivo, human; details: for Efficacy expressed in points on a 4-point scale (seborrhea): humans
Method: A study of effect of Phenotropil on the scalp and face skin in seborrhea oleosa and on the scalp skin in dry seborrhea, as well in the mixed form, was performed on mixed groups of both sexes (15-37 years). The 0.1% Phenotropil solution was used. In the group with mixed form, additional Phenotropil tablets were administered at a dose of 100 mg per day (in the morning). The baseline examinations were used as control. The prepared samples were rubbed into the scalp once a day 1 or 2 hours before bedtime. In the case of acneiform rash, the skin was wiped in the morning and evening by cotton pads soaked (as usual lotion) by 0.1% aqueous Phenotropil. Washing the hair using shampoo was not recommended. A neutral baby soap “Alice” by OAO Svoboda and the rinse prepared with 25 ml of lemon juice and 100 mg Phenotropil powder per 1000.0 ml water were used. Studies were conducted for 28 calendar days with monitoring examinations every 14 days. In the dry seborrhea group, three patients withdrew from the study after two weeks due to reluctance to undergo further examination; they found it difficult to comply with the regime of the detergents use. The skin state was assessed by a 4-point system, where 0—absent, 1—the effect intensity less than 50.0%, 2—the effect intensity more than 50.0%, 3—the effect intensity more than 80% but less than 100.0% of the cases.

[5] = brain, read-out: Contents of Phenotropil in brain
[6] = heart, read-out: Contents of Phenotropil in heart
[7] = kidney, read-out: Contents of Phenotropil in kidney
[8] = liver, read-out: Contents of Phenotropil in liver

Compound: NC(=O)CN1CC(c2ccccc2)CC1=O (racemic) [Compound 1, (RS)-2-(2-oxo-4-phenylpyrrolidine-1-yl)acetamide]
- concentration at 0.25 h [1, 5]: 1600 ± 200 ng/g
- concentration at 0.5 h [1, 5]: 2000 ± 300 ng/g
- concentration at 1 h [1, 5]: 6400 ± 800 ng/g
- concentration at 1.5 h [1, 5]: 4000 ± 600 ng/g
- concentration at 2 h [1, 5]: 1200 ± 300 ng/g
- concentration at 4 h [1, 5]: 400 ± 200 ng/g
- concentration at 0.25 h [1, 6]: 3700 ± 600 ng/g
- concentration at 0.5 h [1, 6]: 7900 ± 900 ng/g
- concentration at 1 h [1, 6]: 10100 ± 1000 ng/g
- concentration at 1.5 h [1, 6]: 14300 ± 1300 ng/g
- concentration at 2 h [1, 6]: 12600 ± 1200 ng/g
- concentration at 4 h [1, 6]: 8400 ± 1000 ng/g
- concentration at 6 h [1, 6]: 4400 ± 800 ng/g
- concentration at 0.25 h [1, 7]: 33200 ± 3400 ng/g
- concentration at 0.5 h [1, 7]: 37500 ± 4000 ng/g
- concentration at 1 h [1, 7]: 55700 ± 5800 ng/g
- concentration at 1.5 h [1, 7]: 50400 ± 6000 ng/g
- concentration at 2 h [1, 7]: 37200 ± 4100 ng/g
- concentration at 4 h [1, 7]: 28000 ± 3200 ng/g
- concentration at 6 h [1, 7]: 16000 ± 2100 ng/g
- concentration at 8 h [1, 7]: 10100 ± 1300 ng/g
- concentration at 0.25 h [1, 8]: 25600 ± 2400 ng/g
- concentration at 0.5 h [1, 8]: 30100 ± 4300 ng/g
- concentration at 1 h [1, 8]: 75800 ± 8200 ng/g
- concentration at 1.5 h [1, 8]: 67700 ± 7100 ng/g
- concentration at 2 h [1, 8]: 59600 ± 5400 ng/g
- concentration at 4 h [1, 8]: 30200 ± 3400 ng/g
- concentration at 6 h [1, 8]: 17700 ± 2100 ng/g
- concentration at 8 h [1, 8]: 11400 ± 1600 ng/g
- time after which compound is not detectable (brain, liver and kidneys as printed) [1]: 6 h
- time of complete elimination from the heart [1]: 8 h
- time of first detection in brain, heart, liver and kidneys [1]: 15 min
- time of maximum concentration in brain, liver and kidneys [1]: in an hour
- time of maximum concentration in the heart [1]: 1 hour 50 minutes
- MDA content [2]: 0.026 ± 0.0415 nmol/L
- subjects with mild morning facial swelling ([3]; cream applied less than two hours before bedtime): 18.0%
- Efficacy in % relative to baseline control (skin aging) ([3]; 50 mg + “Gerantol” cream 100 g): 132.0 * %
- Efficacy in % (skin aging) ([3]; 50 mg + “Lux” cream 100 g): 167.0 * %
- Efficacy expressed in % (age-related changes of blood vessels and joints) ([3]; 100 mg + 100 g of cream base): 211* %
- Efficacy in % relative to baseline control (skin aging) ([3]; 100 mg + “Gerantol” cream 100 g): 205.0 * %
- Efficacy in % (skin aging) ([3]; 100 mg + “Lux” cream 100 g): 210.0 * %
- Efficacy expressed in % (skin aging) ([3]; 100 mg + “Vecher” cream 100 g): 317* %
- Efficacy expressed in % (age-related changes of blood vessels and joints) ([3]; 200 mg + 100 g of cream base): 219* %
- Efficacy in % relative to baseline control (skin aging) ([3]; 200 mg + “Gerantol” cream 100 g): 251.0 * %
- Efficacy in % (skin aging) ([3]; 200 mg + “Lux” cream 100 g): 240.0 * %
- Efficacy expressed in % (skin aging) ([3]; 200 mg + “Vecher” cream 100 g): 280* %
- Efficacy expressed in % (age-related changes of blood vessels and joints) ([3]; 300 mg + 100 g of cream base): 174* %
- Efficacy in % relative to baseline control (skin aging) ([3]; 300 mg + “Gerantol” cream 100 g): 277.0 * %
- Efficacy in % (skin aging) ([3]; 300 mg + “Lux” cream 100 g): 280.0 * %
- Efficacy expressed in % (skin aging) ([3]; 300 mg + “Vecher” cream 100 g): 249* %
- Efficacy in % (skin aging) ([3]; aqueous solution 0.1%): 212.0* %
- Efficacy in % (skin aging) ([3]; cream, 50 mg per 100 g of the base): 140.0 * %
- Efficacy in % (skin aging) ([3]; cream, 100 mg per 100 g of the base): 180.0 * %
- Efficacy in % (skin aging) ([3]; cream, 200 mg per 100 g of the base): 187.0 * %
- Efficacy in % (skin aging) ([3]; cream, 300 mg per 100 g of the base): 200.0 * %
- therapeutic effect compared to control with simultaneous tablets ([4]; 0.1% solution + tablets 100 mg per day): 300.0%
- therapeutic effect in seborrhoea compared with control ([4]; 0.1% solution, 28 days): 200.0%
- Efficacy expressed in points on a 4-point scale (seborrhea) ([4]; DF (dry form), topically 0.1% aqueous solution): 2* (the effect intensity more than 50.0%)
- Efficacy expressed in points on a 4-point scale (seborrhea) ([4]; MF (mixed form), oral 100 mg): 1* (the effect intensity less than 50.0%)
- Efficacy expressed in points on a 4-point scale (seborrhea) ([4]; MF (mixed form), topically 0.1% aqueous solution + 100 mg orally): 3* (the effect intensity more than 80% but less than 100.0% of the cases)
- Efficacy expressed in points on a 4-point scale (seborrhea) ([4]; OF (oily form), topically 0.1% aqueous solution): 2* (the effect intensity more than 50.0%)

Reference: US20140315972A1, “RS)-2-(2-oxo-4-phenylpyrrolidin-1-yl)acetamide compound having modulatory activity with a commensurate effect, pharmaceutical substance (variants) and its application, composition (variants) thereof” (priority 2011, published 2014)
